Reference: patent publication US11896646B2, “Formulated and/or co-formulated liposome compositions containing toll-like receptor (“TLR”) agonist prodrugs useful in the treatment of cancer and methods thereof” (Nammi Therapeutics, Inc., priority 2020, dated 2024)

Experiments:
human TLR8 = biological target: T1, human TLR8 (Homo sapiens, UniProt Q9NR97); experiment: HEK-Blue TLR8 SEAP reporter / QUANTI-Blue assay (Example 20); format: cell-based; settings: HEK-Blue TLR8 cells, 24 hr incubation, different concentration
T1 construct: host or cells: HEK-Blue hTLR8 (HEK 293)
T1 sequence (Q9NR97 27-1041): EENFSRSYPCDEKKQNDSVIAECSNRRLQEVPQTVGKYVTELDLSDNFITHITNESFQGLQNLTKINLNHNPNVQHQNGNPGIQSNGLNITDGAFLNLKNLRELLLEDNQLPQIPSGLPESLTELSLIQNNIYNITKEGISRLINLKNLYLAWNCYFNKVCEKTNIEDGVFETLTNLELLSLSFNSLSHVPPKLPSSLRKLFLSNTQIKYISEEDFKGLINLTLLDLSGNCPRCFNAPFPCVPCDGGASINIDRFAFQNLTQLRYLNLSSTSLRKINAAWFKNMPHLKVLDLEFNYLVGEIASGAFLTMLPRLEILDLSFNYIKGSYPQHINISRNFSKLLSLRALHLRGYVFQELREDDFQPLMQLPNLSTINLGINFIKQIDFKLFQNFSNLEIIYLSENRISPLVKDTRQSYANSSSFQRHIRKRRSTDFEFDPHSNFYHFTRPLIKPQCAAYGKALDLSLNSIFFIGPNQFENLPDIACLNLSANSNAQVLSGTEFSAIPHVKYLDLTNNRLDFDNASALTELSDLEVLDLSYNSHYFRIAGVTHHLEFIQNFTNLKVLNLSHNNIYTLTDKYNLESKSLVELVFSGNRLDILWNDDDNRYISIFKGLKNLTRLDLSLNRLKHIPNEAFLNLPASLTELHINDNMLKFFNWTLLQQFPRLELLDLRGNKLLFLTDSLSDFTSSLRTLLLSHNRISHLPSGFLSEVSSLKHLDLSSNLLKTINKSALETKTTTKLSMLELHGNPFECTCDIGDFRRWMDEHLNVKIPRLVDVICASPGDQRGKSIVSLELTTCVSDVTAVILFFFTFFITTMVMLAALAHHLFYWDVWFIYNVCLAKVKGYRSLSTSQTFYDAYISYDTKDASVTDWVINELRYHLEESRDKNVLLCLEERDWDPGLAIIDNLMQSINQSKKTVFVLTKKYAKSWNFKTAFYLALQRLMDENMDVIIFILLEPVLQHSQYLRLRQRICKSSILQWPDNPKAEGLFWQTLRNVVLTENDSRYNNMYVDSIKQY
Method: (§1) In another experiment, in vitro biological activity of LNP-TR3 and to further confirm targeting of TLR7 and not targeting TLR8, the following experiment(s) were performed using a RAW-Blue™ (NF-κB/AP-1 inducible secreted embryonic alkaline phosphatase (SEAP) reporter gene) Cells and QUANTI-Blue™ (alkaline phosphatase assay), HEK-Blue™ (HEK 293 cell line expressing a TLR gene and an NF-κB/AP-1 inducible secreted embryonic alkaline phosphatase (SEAP) reporter gene), and hTLR8 cell line assay (InvivoGen, San Diego, CA). Briefly, despite Raw Blue™ (NF-κB/AP-1 inducible secreted embryonic alkaline phosphatase (SEAP) reporter gene) cells that express a variety of human Toll Like Receptors (TLRs) (including TLR7/8 but with the exception of TLR5) hTLR8 cells dominantly express the human TLR8. Additionally, an NE κB/AP-1-inducible SEAP (secreted embryonic alkaline phosphatase) reporter gene were used. Stimulation of these cells with TR3 lead to NF-κB activation through TLR8 which is measured by detection of SEAP levels.

TLRs in RAW-Blue cells = experiment: RAW-Blue SEAP reporter / QUANTI-Blue assay (Example 20); format: cell-based, mouse; settings: 24 hr incubation, different concentration
Method: as §1, with “Additionally, an NE κB/AP-1-inducible SEAP (secreted embryonic alkaline phosphatase) reporter gene were used.” left out
RAW-Blue™ (NF-κB/AP-1 inducible secreted embryonic alkaline phosphatase (SEAP) reporter gene) Cells were incubated with TR5, LNP-TR5, TR3, TR3+Stearic Acid, and LNP-TR3 at different concentration. After twenty-four (24) hr. incubation with the compounds, TLR stimulation was assessed by measuring the levels of SEAP optimal density (OD) using a QUANTI-Blue™ (alkaline phosphatase assay) assay. […]

TLR4 = biological target: T2, TLR4 (Mus musculus, UniProt Q9QUK6); experiment: RAW-Blue SEAP reporter / QUANTI-Blue assay, TLR4 (Example 18); format: cell-based; settings: RAW-Blue cells, 24 hr incubation, different concentration
T2 construct: host or cells: RAW-Blue cells
T2 sequence (Q9QUK6 26-835): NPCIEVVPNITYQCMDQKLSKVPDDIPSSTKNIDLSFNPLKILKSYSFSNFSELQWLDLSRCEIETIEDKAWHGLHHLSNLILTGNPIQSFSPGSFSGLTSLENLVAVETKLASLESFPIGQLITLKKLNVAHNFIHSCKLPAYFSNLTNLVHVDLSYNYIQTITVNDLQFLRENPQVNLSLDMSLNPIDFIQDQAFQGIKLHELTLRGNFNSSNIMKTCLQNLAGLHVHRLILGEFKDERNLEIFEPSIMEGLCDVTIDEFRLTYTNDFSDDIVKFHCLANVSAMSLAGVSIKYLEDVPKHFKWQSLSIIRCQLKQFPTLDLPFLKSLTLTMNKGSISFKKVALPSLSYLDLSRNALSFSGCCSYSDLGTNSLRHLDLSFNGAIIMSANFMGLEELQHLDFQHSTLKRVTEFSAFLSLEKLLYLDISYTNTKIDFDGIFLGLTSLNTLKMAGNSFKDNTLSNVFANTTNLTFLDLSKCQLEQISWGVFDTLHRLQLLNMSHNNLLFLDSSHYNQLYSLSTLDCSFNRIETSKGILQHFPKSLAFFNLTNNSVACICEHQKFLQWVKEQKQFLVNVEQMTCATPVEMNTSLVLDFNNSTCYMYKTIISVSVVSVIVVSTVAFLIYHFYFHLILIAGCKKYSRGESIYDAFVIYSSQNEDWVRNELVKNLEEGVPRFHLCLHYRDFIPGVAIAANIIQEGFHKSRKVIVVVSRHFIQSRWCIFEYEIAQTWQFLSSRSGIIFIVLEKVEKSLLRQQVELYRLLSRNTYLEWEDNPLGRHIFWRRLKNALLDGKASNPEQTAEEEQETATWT
T2 sequence (Q9JHF9 19-160 partner): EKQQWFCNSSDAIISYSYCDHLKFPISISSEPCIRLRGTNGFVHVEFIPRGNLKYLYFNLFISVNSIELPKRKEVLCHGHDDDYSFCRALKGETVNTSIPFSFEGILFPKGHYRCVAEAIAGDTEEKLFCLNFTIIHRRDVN
Method: In another experiment, in vitro biological activity of LNP-TR8 and to further confirm targeting of TLR4, the following experiment(s) were performed using a RAW-Blue™ (NF-[…]/AP-1 inducible secreted embryonic alkaline phosphatase (SEAP) reporter gene) Cells and QUANTI-Blue™ (alkaline phosphatase assay) assay (InvivoGen, San Diego, CA). Briefly, Raw Blue™ (NF-κB/AP-1 inducible secreted embryonic alkaline phosphatase (SEAP) reporter gene) cells that express human Toll Like Receptors (TLRs) (with the exception of TLR5) and an NF-κB/AP-1-inducible SEAP (secreted embryonic alkaline phosphatase) reporter gene were used. Stimulation of these cells with TR8 lead to NF-κB activation through TLR4 which is measured by detection of SEAP levels. RAW-Blue™ (NF-κB/AP-1 inducible secreted embryonicalkaline phosphatase (SEAP) reporter gene) Cells were incubated with TR8 and LNP-TR8 at different concentration. After twenty-four (24) hr. incubation with the compounds, TLR stimulation was assessed by measuring the levels of SEAP optimal density (OD) using a QUANTI-Blue™ (alkaline phosphatase assay) assay. ODs were normalized to the control (untreated) group. […] (See, FIG. 26).

For `CCCCCCCCCCCCCCCCCCS(=O)(=O)NCCCCn1c(CC)nc2c(N)nc3ccccc3c21` [TR3+Stearic Acid], the “TLR stimulation (SEAP OD normalized to untreated control)” value (human TLR8) was “only TR5 in prodrug and liposome form were able to stimulate the cells” and the “TLR stimulation (SEAP OD normalized to untreated control)” value (TLRs in RAW-Blue cells) was “stimulated TLRs”.

“Monophosphoryl Lipid A (Synthetic) [TR8]” was tested, and the “TLR stimulation (SEAP OD normalized to untreated control)” value (TLR4) was “could cause stimulation of TLR4”.
